This is an account of results in patent publication EP4800018A1, “PAN-KRAS INHIBITOR AND USE THEREOF IN MEDICINES” (Betta Pharmaceuticals Co., Ltd., priority 2023, dated 2025).

SMILES strings stand for the structures.

Common to all, as to format: cell-based
Assay [1] deals with T1, KRAS G12D-cRAF (Homo sapiens, UniProt P01116, G12D).
T1 construct: expressed in transfected cells
As to the kind of experiment: Cellular KRAS G12D-cRAF Binding Inhibition Assay (NanoBRET, AD293 stable cells). Conditions: 3 h incubation, read-out: NanoBRET KRAS G12D. As to the method:
(§1) NanoLuc® luciferase was used as the energy donor, and NanoBRET™ 618 fluorescent ligand labeled with the HaloTag® protein was used as the energy acceptor to detect protein-protein interactions in living cells. AD293 stable cells transfected with KRAS G12D-NanoLuc® luciferase and cRAF RBD-HaloTag® tag protein were seeded in 96-well plates at a cell density of 1×10^4 cells/well. Except for wells with medium added as a blank control, NanoBRET™ 618 fluorescent ligand was added to all other wells, and the plates were cultured overnight in a cell culture incubator. […] The luminescence data were calculated and converted into inhibition percent. The inhibition percent of KRAS G12D-cRAF binding was calculated according to the following formula: Inhibition Percent = (MaxValue−MeasuredValue)/(MaxValue−Blank) × 100% [formula] […] Curve fitting was performed using GraphPad Prism software to obtain IC50 values, see Table 1.

For assay [2], the system named is KRAS-G12D mutant tumor cells AGS. As to the kind of experiment: Cell Proliferation Inhibition Assay (AGS), Cell-titer GLO, 96 h. The following applies: Homo sapiens, AGS, 96 h, AGS cells, 96 h incubation, Cell-titer GLO; read-out: AGS(G12D). How it is done: KRAS-G12D mutant tumor cells AGS were seeded in low-attachment 96-well plates at a cell density of 1×10^3 cells/well and cultured overnight in a cell culture incubator. […] After incubation at 37°C for 96 h, 50 µL of Cell-titer GLO working solution was added to each well, mixed by shaking, incubated at room temperature for 10 min, and the Luminescence value was read on a multi-function microplate reader. The luminescence data were calculated and converted into inhibition percent. The inhibition percent of cell proliferation was calculated according to the following formula: Inhibition Percent = (MaxValue−MeasuredValue)/(MaxValue−Blank) × 100% [formula] […] Curve fitting was performed using GraphPad Prism software to obtain IC50 values, see Table 1.

The target in assay [3] is T2, KRAS G12V-cRAF (Homo sapiens, UniProt P01116, G12V).
T2 construct: expressed in transfected cells
T2 sequence (P01116 1-188 isoform P01116-2 G12V): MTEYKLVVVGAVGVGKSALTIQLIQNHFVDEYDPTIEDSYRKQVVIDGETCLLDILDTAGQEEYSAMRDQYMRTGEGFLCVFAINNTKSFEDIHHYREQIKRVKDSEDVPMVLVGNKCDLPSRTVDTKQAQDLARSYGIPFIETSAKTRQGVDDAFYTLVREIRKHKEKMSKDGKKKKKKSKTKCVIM
In words: Cellular KRAS G12V-cRAF Binding Inhibition Assay (NanoBRET, AD293 stable cells). The following applies: 3 h incubation, read-out: NanoBRET KRAS G12V. How it is done:
as §1, with “AD293 stable cells transfected with KRAS G12D-NanoLuc® luciferase and cRAF RBD-HaloTag® tag protein were seeded in 96-well plates at a cell density of 1×10^4 cells/well.” left out, “G12V-cRAF” for “G12D-cRAF”

Assay [4] concerns KRAS-G12V mutant tumor cells SW620. In words: Cell Proliferation Inhibition Assay (SW620), Cell-titer GLO, 96 h. Conditions: Homo sapiens, SW-620, 96 h, SW620 cells, 96 h incubation, Cell-titer GLO; read-out: SW620(G12V). As to the method:
KRAS-G12V mutant tumor cells SW620 were seeded in low-attachment 96-well plates at a cell density of 1×10^3 cells/well and cultured overnight in a cell culture incubator. After the cells adhered, the test compounds were added to the 96-well plates at final concentrations of 10000, 2000, 400, 80, 16, 3.2, 0.64, 0.13, 0.03, 0 nM (final concentration of DMSO was 0.5% for all). After incubation at 37°C for 96 h, 50 µL of Cell-titer GLO working solution was added to each well, mixed by shaking, incubated at room temperature for 10 min, and the Luminescence value was read on a multi-function microplate reader. The luminescence data were calculated and converted into inhibition percent. The inhibition percent of cell proliferation was calculated according to the following formula: Inhibition Percent = (MaxValue−MeasuredValue)/(MaxValue−Blank) × 100% [formula]
("Max Value" comes from the 0.5% DMSO control well, "Blank" comes from the blank control well, and "Measured Value" comes from the compound-treated well).
Curve fitting was performed using GraphPad Prism software to obtain IC50 values, see Table 1.

T1 sequence (P01116 1-188 isoform P01116-2 G12D): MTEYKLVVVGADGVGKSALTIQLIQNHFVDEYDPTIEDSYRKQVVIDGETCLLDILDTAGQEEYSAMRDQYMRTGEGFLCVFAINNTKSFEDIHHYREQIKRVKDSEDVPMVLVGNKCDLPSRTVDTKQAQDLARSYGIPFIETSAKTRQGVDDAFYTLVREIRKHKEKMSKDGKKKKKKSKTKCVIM

Take `COCCN1CCN(c2cnc3c(c2)-c2c4c5cc(ccc5n2CCCOC3C)-c2csc(n2)CC(NC(=O)C23CC(C)(C2)C3)C(=O)N2CCCC(N2)C(=O)OCC(C)(C)C4)CC1` [Example 38, N-((1^5S,6^3S,4S,Z)-1^2-(4-(2-methoxyethyl)piperazin-1-yl)-1^5,10,10-trimethyl-5,7-dioxo-1^8,1^9,6^1,6 ^2,6^3,6^4,6^5,6^6-octahydro-1^5H,1^7H-8-oxa-1(13,15)-pyrido[3',2':7,8][1,5]oxazonino[5,6-a]indola-2(4 ,2)-thiazola-6(1,3)-pyridazinacycloundecaphane-4-yl)-3-methylbicyclo[1.1.1]pentane-1-carboxamide]: the IC50 in assay [1] was found to be 8.6 nM; in assay [2], 4.2 nM; in assay [3] it was 31.9 nM; in assay [4], 1.72 nM.

`CC1OCCCn2c(c3c4cc(ccc42)-c2csc(n2)CC(NC(=O)C24CC(C)(C2)C4)C(=O)N2CCCC(N2)C(=O)OCC(C)(C)C3)-c2cc(N3CCN(CC(F)(F)F)CC3)cnc21` [Example 39, 3-methyl-N-((1^5S,6^3S,4S,Z)-1^5,10,10-trimethyl-5,7-dioxo-1^2-(4-(2,2,2-trifluoroethyl)piperazin-1-yl)-1^8,1^9,6^1,6^2,6^3,6^4,6^5,6^6-octahydro-1^5H,1^7H-8-oxa-1(13,15)-pyrido[3',2':7,8][1,5]oxazonino[5,6-a]indola-2(4,2)-thiazola-6(1,3)-pyridazinacycloundecaphane-4-yl)bicyclo[1.1.1]pentane-1-carbo xamide]: the IC50 in assay [1] came to 22.1 nM; in assay [2] it was 33.7 nM; in assay [3], 86.4 nM; in assay [4], 8.17 nM.

As for `CC1OCCCn2c(c3c4cc(ccc42)-c2csc(n2)CC(NC(=O)C24CC(C)(C2)C4)C(=O)N2CCCC(N2)C(=O)OCC(C)(C)C3)-c2cc(N3CCN(C4CC4)CC3)cnc21` [Example 40, N-((1^5S,6^3S,4S,Z)-1^2-(4-cyclopropylpiperazin-1-yl)-1^5,10,10-trimethyl-5,7-dioxo-1^8,1^9,6^1,6^2,6^3,6 ^4,6^5,6^6-octahydro-1^5H,1^7H-8-oxa-1(13,15)-pyrido[3',2':7,8][1,5]oxazonino[5,6-a]indola-2(4,2)-thiazola-6(1,3)-pyridazinacycloundecaphane-4-yl)-3-methylbicyclo[1.1.1]pentane-1-carboxamide], the IC50 in assay [1] came out at 15.8 nM; in assay [2], 22.4 nM; in assay [3] it was 61.1 nM; in assay [4], 4.29 nM.

`CC1OCCCn2c(c3c4cc(ccc42)-c2csc(n2)CC(NC(=O)C24CC(C)(C2)C4)C(=O)N2CCCC(N2)C(=O)OCC(C)(C)C3)-c2cc(N3CCN(C)CC3)cnc21` [Example 80, 3-methyl-N-((1^53 ^3S,4S,Z)-1^5,10,10-trimethyl-1^2-(4-methylpiperazin-1-yl)-5,7-dioxo-1^8,1^9,6^1,6^2 ,6^3,6^4,6^5,^6-octahydro-1^5H,1^7H-8-oxa-1(13,15)-pyrido[3',2':7,8][1,5]oxazonino[5,6-a]indola-2(4, 2)-thiazola-6(1,3)-pyridazinacycloundecaphane-4-yl)bicyclo[1.1.1]pentane-1-carboxamide]: the IC50 turned out to be 5.7 nM in assay [1], 1.76 nM in assay [2], 21.3 nM in assay [3] and 0.3 nM in assay [4].

With `CC1OCCCn2c(c3c4cc(ccc42)-c2csc(n2)CC(NC(=O)C2CC2C(F)F)C(=O)N2CCCC(N2)C(=O)OCC(C)(C)C3)-c2cc(N3CCN(C)CC3)cnc21` [Example 81, (1S,2S)-2-(difluoromethyl)-N-((1^5S,6^3S,4S,Z)-1^5,10,10-trimethyl-1^2-(4-methylpiperazin-1-yl)-5,7-dioxo-1^8,1^9,6^1,6^2,6^3,6^4,6^5,6^6-octahydro-1^5H,1^7H-8-oxa-1(13,15)-pyrido[3',2':7,8][1,5]oxazonino[5,6-a]indola-2(4,2)-thiazola-6(1,3)-pyridazinacycloundecaphane-4-yl)cyclopropane-1-carboxamide], the IC50 in assay [1] amounted to 3.14 nM; in assay [2] it was 0.79 nM; in assay [3] it was 9.6 nM; in assay [4], 0.11 nM.

On to `CC1OCCCn2c(c3c4cc(ccc42)-c2csc(n2)CC(NC(=O)C2CC2C(F)F)C(=O)N2CCCC(N2)C(=O)OCC(C)(C)C3)-c2cc(N3CCOCC3)cnc21` [Example 83, (1S,2S)-2-(difluoromethyl)-N-((1^5S,6^3S,4S,Z)-1^5,10,10-trimethyl-1^2-morpholino-5,7-dioxo-1^8,1^9, 6^1,6^2,6^3,6^4,6^56-octahydro-1^5H,1^7H-8-oxa-1(13,15)-pyrido[3',2':7,8][1,5]oxazonino[5,6-a]indola-2(4,2)-thiazola-6(1,3)-pyridazinacycloundecaphane-4-yl)cyclopropane-1-carboxamide], for which the IC50 amounted to 2.88 nM in assay [1], 2.04 nM in assay [2], 11.9 nM in assay [3] and 0.33 nM in assay [4].

`CCN1CCN(c2cnc3c(c2)-c2c4c5cc(ccc5n2CCCOC3C)-c2csc(n2)CC(NC(=O)C2CC2C(F)F)C(=O)N2CCCC(N2)C(=O)OCC(C)(C)C4)CC1` [Example 84, (1S,2S)-2-(difluoromethyl)-N-((1^5S,6^3S,4S,Z)-1^2-(4-ethylpiperazin-1-yl)-1^5,10,10-trimethyl-5,7-dioxo-1^8,1^9,6^1,6^2,6^3,6^4,6^5,6^6-octahydro-1^5H,1^7H-8-oxa-1(13,15)-pyrido[3',2':7,8][1,5]oxazonino[5,6-a]indola-2(4,2)-thiazola-6(1,3)-pyridazinacycloundecaphane-4-yl)cyclopropane-1-carboxamide]: the IC50 worked out at 2.76 nM in assay [1], 1.15 nM in assay [2], 9.17 nM in assay [3] and 0.19 nM in assay [4].

`CC1OCCCn2c(c3c4cc(ccc42)-c2csc(n2)CC(NC(=O)C2CC2C(F)F)C(=O)N2CCCC(N2)C(=O)OCC(C)(C)C3)-c2cc(N3CCN(C4CC4)CC3)cnc21` [Example 85, (1S,2S)-N-((1^5S,6^3S,4S,Z)-1^2-(4-cyclopropylpiperazin-1-yl)-15,10,10-trimethyl-5,7-dioxo-1^8,1^9,6 ,6^2,6^3,6^4,6^5,6^6-octahydro-1^5H,1^7H-8-oxa-1(13,15)-pyrido[3',2':7,8][1,5]oxazonino[5,6-a]indola-2(4,2)-thiazola-6(1,3)-pyridazinacycloundecaphane-4-yl)-2-(difluoromethyl)cyclopropane-1-car boxamide]: the IC50 was 5.56 nM in assay [1], 3.72 nM in assay [2], 19.9 nM in assay [3] and 0.63 nM in assay [4].

On to `CC1OCCCn2c(c3c4cc(ccc42)-c2csc(n2)CC(NC(=O)C2CC2C(F)F)C(=O)N2CCCC(N2)C(=O)OCC(C)(C)C3)-c2cc(N3CCN(C(C)C)CC3)cnc21` [Example 86, (1S,2S)-2-(difluoromethyl)-N-((1^5S,6^3S,4S,Z)-1^2-(4-isopropylpiperazin-1-yl)-1^5,10,10-trimethyl-5,7-dioxo-1^8,1^9,6^1,6^2,6^3,6^4,6^5,6^6-octahydro-1^5H,1^7H-8-oxa-1(13,15)-pyrido[3',2':7,8][1,5]oxazonino[5,6-a]indola-2(4,2)-thiazola-6(1,3)-pyridazinacycloundecaphane-4-yl)cyclopropane-1-carbox amide], for which the IC50 came to 2.19 nM in assay [1], 1.19 nM in assay [2], 11 nM in assay [3] and 0.17 nM in assay [4].
